From patent US20240279207A1, “SUBSTITUTED ACYL SULFONAMIDES FOR TREATING CANCER” (The Broad Institute, Inc., priority 2020, published 2024) come the findings set out here.

Assay [1] deals with T1, Recombinant human His-tagged Kat6a protein (amino acids 194-810) (Homo sapiens, UniProt Q92794).
T1 construct: Kat6a protein (amino acids 194-810); His
The experiment in a line: Kat6a activity assay (TR-FRET, acetylation of Histone-H4-derived peptide). In kind it is biochemical. The following applies: 60 mins at 22° C., 220 nM H4 peptide, 600 nM Acetyl Coenzyme A, read-out: KAT6A - DPF/HAT domain IC50 [mol/l] (arithmetic mean). Background: TR-FRET usually uses a lanthanide donor and a delayed reading to cut background.

Assay [2] concerns ESR1 transcription in MVLN cells. The experiment in a line: MVLN reporter assay: repression of ESR1 transcription (luciferase signal). To be noted: Homo sapiens, MVLN, 24 h, luciferase signal after 24 h, read-out: MVLN reporter assay, IC50 [M] (arithmetic mean). In kind it is cell-based. A digest of the protocol: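 To control for cell loss, Alamar Blue (2 h, 530/590 nm) precedes the 24 h luciferase measurement. The reporter is an ERE from the Xenopus vitellogenin A2 gene driving luciferase, stably transfected into ER-expressing MVLN cells; duplicate samples.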

T1 sequence (Q92794 194-810): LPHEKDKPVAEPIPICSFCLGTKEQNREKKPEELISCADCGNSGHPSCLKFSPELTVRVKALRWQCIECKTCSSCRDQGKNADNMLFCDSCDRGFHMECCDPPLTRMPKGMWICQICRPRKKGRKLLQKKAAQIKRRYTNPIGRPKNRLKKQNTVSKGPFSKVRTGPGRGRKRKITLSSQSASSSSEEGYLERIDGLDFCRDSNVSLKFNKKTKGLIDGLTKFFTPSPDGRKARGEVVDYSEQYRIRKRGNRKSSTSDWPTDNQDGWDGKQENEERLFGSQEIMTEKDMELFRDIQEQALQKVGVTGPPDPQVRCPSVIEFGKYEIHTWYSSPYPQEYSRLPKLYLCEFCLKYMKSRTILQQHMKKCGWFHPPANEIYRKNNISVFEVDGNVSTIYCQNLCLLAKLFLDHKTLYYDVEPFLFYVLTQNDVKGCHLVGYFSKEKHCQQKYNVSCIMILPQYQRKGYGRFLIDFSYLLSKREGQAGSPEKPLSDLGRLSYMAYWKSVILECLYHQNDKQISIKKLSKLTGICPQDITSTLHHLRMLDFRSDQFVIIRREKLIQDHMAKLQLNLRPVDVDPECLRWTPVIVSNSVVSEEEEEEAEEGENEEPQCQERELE

For the molecule `O=C(NS(=O)(=O)c1ccccc1C(Cl)Cl)c1cc2c(F)cc(N3CC(F)C3)cc2o1` [Example 114, N-[2-(dichloromethyl)benzene-1-sulfonyl]-4-fluoro-6-(3-fluoroazetidin-1-yl)-1-benzofuran-2-carboxamide], the IC50 in assay [1] is 406 nM; in assay [2] it was over 2e-05 M.
In the same order, the values of `Cc1nc(-c2ccc(S(=O)(=O)NC(=O)c3cc4c(F)cc(N5CC(F)C5)cc4o3)cc2)cs1` [Example 115, 4-Fluoro-6-(3-fluoroazetidin-1-yl)-N-[4-(2-methyl-1,3-thiazol-4-yl)benzene-1-sulfonyl]-1-benzofuran-2-carboxamide] are 563 nM and 3.81e-06 M.
In the same order, the values of `CCOc1ccccc1S(=O)(=O)NC(=O)c1cc2ccc(N3CC(C(F)(F)F)C3)cc2o1` [Example 117, N-(2-Ethoxybenzene-1-sulfonyl)-6-[3-(trifluoromethyl)azetidin-1-yl]-1-benzofuran-2-carboxamide] are 12900 nM and 1.73e-05 M.
For the molecule `CCOc1ccccc1S(=O)(=O)NC(=O)c1cc2ccc(N3CC(OCC)C3)cc2o1` [Example 121, 6-(3-Ethoxyazetidin-1-yl)-N-(2-ethoxybenzene-1-sulfonyl)-1-benzofuran-2-carboxamide], the IC50 in assay [1] was 13400 nM; in assay [2], over 2e-05 M.
In the same order, the values of `CCOc1ccccc1S(=O)(=O)NC(=O)c1cc2ccc(N3CC4(CCC4)C3)cc2o1` [Example 123, 6-(2-Azaspiro[3.3]heptan-2-yl)-N-(2-ethoxybenzene-1-sulfonyl)-1-benzofuran-2-carboxamide] are over 20000 nM and over 2e-05 M.
Regarding `COc1ccc(N2CCOCC2)cc1S(=O)(=O)NC(=O)c1cc2c(F)cc(N3CCC3)cc2o1` [Example 137, 6-(Azetidin-1-yl)-4-fluoro-N-[2-methoxy-5-(morpholin-4-yl)benzene-1-sulfonyl]-1-benzofuran-2-carboxamide], the results for the IC50 in assay [1] and in assay [2] were 26.2 nM and 1.74e-07 M, respectively.
For `COc1ccc(Br)cc1S(=O)(=O)NC(=O)c1cc2c(F)cc(N3CCC3)cc2o1` [Example 139, 6-(azetidin-1-yl)-N-(5-bromo-2-methoxybenzene-1-sulfonyl)-4-fluoro-1-benzofuran-2-carboxamide], in that order: 41.3 nM and 2.36e-07 M.
For `O=C(NS(=O)(=O)c1cccc2c1S(=O)(=O)CCC2)c1cc2c(F)cc(N3CCC3)cc2o1` [Example 141, 6-(Azetidin-1-yl)-N-(1,1-dioxo-1,2,3,4-tetrahydro-1-benzothiopyran-8-sulfonyl)-4-fluoro-1-benzofuran-2-carboxamide], in that order: 139 nM and 5.12e-07 M.
In the same order, the values of `O=C(NS(=O)(=O)c1c(Cl)ccc2c1OC(F)(F)O2)c1cc2c(F)cc(N3CCC3)cc2o1` [Example 142, 6-(Azetidin-1-yl)-N-(5-chloro-2,2-difluoro-2H-1,3-benzodioxole-4-sulfonyl)-4-fluoro-1-benzofuran-2-carboxamide] are 149 nM and 1.2e-06 M.
As for `CCn1nc(S(=O)(=O)NC(=O)c2cc3c(F)cc(N4CCC4)cc3o2)c2cccnc21` [Example 143, 6-(Azetidin-1-yl)-N-(1-ethyl-1H-pyrazolo[3,4-b]pyridine-3-sulfonyl)-4-fluoro-1-benzofuran-2-carboxamide], the IC50 in assay [1] worked out at 226 nM; in assay [2], 4.61e-06 M.
In the same order, the values of `Cn1nc(S(=O)(=O)NC(=O)c2cc3c(F)cc(N4CCC4)cc3o2)c2ccc(C(F)(F)F)nc21` [Example 144, 6-(Azetidin-1-yl)-4-fluoro-N-[1-methyl-6-(trifluoromethyl)-1H-pyrazolo[3,4-b]pyridine-3-sulfonyl]-1-benzofuran-2-carboxamide] are 548 nM and 7.93e-06 M.
For `Cc1ccc2c(S(=O)(=O)NC(=O)c3cc4c(F)cc(N5CCC5)cc4o3)nn(C)c2n1` [Example 145, 6-(Azetidin-1-yl)-N-(1,6-dimethyl-1H-pyrazolo[3,4-b]pyridine-3-sulfonyl)-4-fluoro-1-benzofuran-2-carboxamide], in that order: 402 nM and 8.4e-06 M.
